pIC50: −log10 of the molar value.
Biological target: T1, Tyrosine-protein kinase JAK3 [512-1124] (Homo sapiens, UniProt P52333)
T1 construct: 512-1124
T1 sequence (P52333 whole entry): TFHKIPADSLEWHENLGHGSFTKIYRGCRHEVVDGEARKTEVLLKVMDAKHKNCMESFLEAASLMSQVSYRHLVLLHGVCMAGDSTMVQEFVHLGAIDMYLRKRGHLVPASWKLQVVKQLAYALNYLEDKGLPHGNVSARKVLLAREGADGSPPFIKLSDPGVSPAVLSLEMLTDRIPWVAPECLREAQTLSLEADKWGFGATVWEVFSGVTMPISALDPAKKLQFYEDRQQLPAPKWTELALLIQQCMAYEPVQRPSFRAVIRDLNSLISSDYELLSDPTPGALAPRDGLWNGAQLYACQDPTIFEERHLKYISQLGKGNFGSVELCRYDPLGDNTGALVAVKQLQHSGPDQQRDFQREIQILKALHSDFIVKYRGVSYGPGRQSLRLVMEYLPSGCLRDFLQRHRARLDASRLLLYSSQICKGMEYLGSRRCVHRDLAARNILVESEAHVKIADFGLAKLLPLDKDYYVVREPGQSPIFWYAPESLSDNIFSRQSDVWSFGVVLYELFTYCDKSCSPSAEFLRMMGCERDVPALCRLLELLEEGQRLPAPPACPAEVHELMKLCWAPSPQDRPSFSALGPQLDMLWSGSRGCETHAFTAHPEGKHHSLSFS
Experiment: Enzymatic Inhibition Assay
Excerpt: LC/MS grade water and acetonitrile (ACN), were purchased from HoneyWell, Burdick & Jackson (Muskegon, Mich., USA).

Row | Compound | pIC50
1 | CC(C)(C#N)CNC(=O)Cc1nc2cnc3[nH]ccc3c2n1C1CCC(CC#N)CC1 (stereo unspecified) [US11066406, Ex. 7] | 7.01
2 | Cn1cc(NC(=O)Cc2nc3cnc4[nH]ccc4c3n2C2CCC(CC#N)CC2)cn1 (stereo unspecified) [US11066406, Ex. 9] | 7.10
3 | N#CCC1CCC(n2c(CC(=O)NCC3(O)CCC3)nc3cnc4[nH]ccc4c32)CC1 (stereo unspecified) [US11066406, Ex. 8] | 7.12
4 | N#CCC1CCC(n2c(CC(=O)NCC3(O)CC3)nc3cnc4[nH]ccc4c32)CC1 (stereo unspecified) [US11066406, Ex. 12] | 7.00
5 | N#CC[C@H]1CC[C@H](n2c(CC(=O)NCC3CC3)nc3cnc4[nH]ccc4c32)CC1 [US11066406, Ex. 3] | 7.08
6 | N#CCC1(n2c(CC(=O)NCC3CCOCC3)nc3cnc4[nH]ccc4c32)CCCCC1 [US11066406, Ex. 6] | 7.55
7 | CC(C)(O)CNC(=O)Cc1nc2cnc3[nH]ccc3c2n1C1CCC(CC#N)CC1 (stereo unspecified) [US11066406, Ex. 1] | 7.04
8 | N#CCC1CCC(n2c(CC(=O)NC3CCOCC3)nc3cnc4[nH]ccc4c32)CC1 (stereo unspecified) [US11066406, Ex. 5] | 7.64
9 | N#CCC1CCC(n2c(CC(=O)NC34CCC(CC#N)(CC3)C4)nc3cnc4[nH]ccc4c32)CC1 (stereo unspecified) [US11066406, Ex. 10] | 7.06
10 | N#CCCNC(=O)Cc1nc2cnc3[nH]ccc3c2n1C1CCC(CC#N)CC1 (stereo unspecified) [US11066406, Ex. 4] | 7.02
11 | N#CCC1CCC(n2c(CC(=O)Nc3cc[nH]n3)nc3cnc4[nH]ccc4c32)CC1 (stereo unspecified) [US11066406, Ex. 11] | 7.52

From BindingDB's records for patent US11066406 (Janssen Pharmaceutica, 2021)
